Measured values taken from ChEMBL document CHEMBL4765227, “Hit to lead optimization of a series of N-[4-(1,3-benzothiazol-2-yl)phenyl]acetamides as monoacylglycerol lipase inhibitors with potential anticancer activity” (Eur J Med Chem, 2016).

Experiments:
Type in all cases: functional
Conditions in all cases: read-out: GI
SR = test: Growth inhibition of human SR cells at 10 uM incubated for 48 hrs by sulforhodamine B assay relative to control
NCI-H23 = test: Growth inhibition of human NCI-H23 cells at 10 uM incubated for 48 hrs by sulforhodamine B assay relative to control
COLO 205 = test: Growth inhibition of human COLO 205 cells at 10 uM incubated for 48 hrs by sulforhodamine B assay relative to control
SF-268 = test: Growth inhibition of human SF-268 cells at 10 uM incubated for 48 hrs by sulforhodamine B assay relative to control
SF-295 = test: Growth inhibition of human SF-295 cells at 10 uM incubated for 48 hrs by sulforhodamine B assay relative to control
SF-539 = test: Growth inhibition of human SF-539 cells at 10 uM incubated for 48 hrs by sulforhodamine B assay relative to control
LOX IMVI = test: Growth inhibition of human LOX IMVI cells at 10 uM incubated for 48 hrs by sulforhodamine B assay relative to control
SK-MEL-2 = test: Growth inhibition of human SK-MEL-2 cells at 10 uM incubated for 48 hrs by sulforhodamine B assay relative to control
UACC-257 = test: Growth inhibition of human UACC-257 cells at 10 uM incubated for 48 hrs by sulforhodamine B assay relative to control
OVCAR-3 = test: Growth inhibition of human OVCAR-3 cells at 10 uM incubated for 48 hrs by sulforhodamine B assay relative to control
OVCAR-4 = test: Growth inhibition of human OVCAR-4 cells at 10 uM incubated for 48 hrs by sulforhodamine B assay relative to control
786-0 = test: Growth inhibition of human 786-0 cells at 10 uM incubated for 48 hrs by sulforhodamine B assay relative to control
MCF7 = test: Growth inhibition of human MCF7 cells at 10 uM incubated for 48 hrs by sulforhodamine B assay relative to control
Hs-578T = test: Growth inhibition of human Hs-578T cells at 10 uM incubated for 48 hrs by sulforhodamine B assay relative to control
EKVX = test: Growth inhibition of human EKVX cells at 10 uM incubated for 48 hrs by sulforhodamine B assay relative to control
A498 = test: Growth inhibition of human A498 cells at 10 uM incubated for 48 hrs by sulforhodamine B assay relative to control

Structure (SMILES) | inhibition of growth at 10 µM (SR) [%] | inhibition of growth at 10 µM (NCI-H23) [%] | inhibition of growth at 10 µM (COLO 205) [%] | inhibition of growth at 10 µM (SF-268) [%] | inhibition of growth at 10 µM (SF-295) [%] | inhibition of growth at 10 µM (SF-539) [%] | inhibition of growth at 10 µM (LOX IMVI) [%] | inhibition of growth at 10 µM (SK-MEL-2) [%] | inhibition of growth at 10 µM (UACC-257) [%] | inhibition of growth at 10 µM (OVCAR-3) [%] | inhibition of growth at 10 µM (OVCAR-4) [%] | inhibition of growth at 10 µM (786-0) [%] | inhibition of growth at 10 µM (MCF7) [%] | inhibition of growth at 10 µM (Hs-578T) [%] | inhibition of growth at 10 µM (EKVX) [%] | inhibition of growth at 10 µM (A498) [%]
O=C(CNC1CCCCC1)Nc1ccc(-c2nc3ccccc3s2)cc1 | 90.3 | 23.8 | 4.58 | 21.6 | 14.1 | 12.5 | 26.1 | -4.63 | -4.65 | 5.98 | 15.6 | 29.4 | 72 | 15.8 | – | –
O=C(Cn1ccnc1)Nc1ccc(-c2nc3ccccc3s2)cc1 | 63.5 | 42.6 | 19.2 | 18.9 | 34.5 | 18.7 | 26.6 | – | 32.4 | 37.8 | 65.2 | 22 | 38.7 | 13.1 | 38.6 | 42.5
O=C(CNc1ccccc1)Nc1ccc(-c2nc3ccccc3s2)cc1 | 74.5 | 11.9 | -11.2 | 12.1 | 7.06 | 12 | 55.4 | -4.93 | -1.98 | 5.15 | 15.3 | 15.4 | 53.2 | -8.46 | – | –
Cc1cc(C)n(CC(=O)Nc2ccc(-c3nc4ccccc4s3)cc2)n1 | 0.6 | 6.19 | -12.4 | -0.26 | -3.17 | 1.4 | 2.33 | – | -7.21 | -1.21 | 2.19 | -5.8 | 73.4 | -13.4 | -7.86 | 5.37
O=C(CNCc1ccccc1)Nc1ccc(-c2nc3ccccc3s2)cc1 | 21.3 | 9.23 | -11.5 | 3.99 | 6.24 | 17.8 | 3.99 | -7.25 | 4.97 | 8.88 | 2.46 | 8.55 | 61.6 | -4.26 | – | –
O=C(Cn1ccc2ccccc21)Nc1ccc(-c2nc3ccccc3s2)cc1 | 4.51 | 5.98 | -0.82 | 3.37 | -3.08 | -2.36 | 8.68 | – | -0.08 | -2.19 | -2.92 | -3.1 | 61.8 | 2.29 | -7.41 | 0.94
O=C(CN1CCCCC1)Nc1ccc(-c2nc3ccccc3s2)cc1 | 56 | 20.8 | -5.35 | 0.48 | 4.43 | -0.41 | 21 | -7.06 | 2.05 | -0.25 | 4.89 | 13.9 | 75.1 | 12.6 | – | –
O=C(Cn1cncn1)Nc1ccc(-c2nc3ccccc3s2)cc1 | 16.2 | 12.5 | -6.86 | 2.87 | 8.06 | -7.74 | 0.66 | – | -2.17 | 8.95 | 19.4 | 4.38 | 63.9 | -3.42 | 9.8 | 11.6
COc1ccc(NCC(=O)Nc2ccc(-c3nc4ccccc4s3)cc2)cc1 | 15.6 | 14.3 | -6.9 | 10.5 | 3.2 | 3.41 | 8.68 | -15.7 | -3.88 | 3.44 | 12.8 | 14.8 | 35 | 2.83 | – | –
O=C(CNc1nc2ccccc2s1)Nc1ccc(-c2nc3ccccc3s2)cc1 | 8.72 | 11.2 | -11.7 | 7.92 | -7.45 | -7.1 | 24.2 | – | -1.9 | 2.04 | -1.76 | -1.86 | 75.2 | -0.48 | -9.9 | 6.15
O=C(CN1CCOCC1)Nc1ccc(-c2nc3ccccc3s2)cc1 | -2.12 | 4.49 | -15.3 | -10.3 | 1.81 | 10.3 | 0.08 | -14.6 | -1.38 | 3.74 | -0.52 | -1.3 | 51.2 | -9.77 | – | –
Cc1cc(NCC(=O)Nc2ccc(-c3nc4ccccc4s3)cc2)no1 | 30.1 | 17.2 | -7.78 | 12.6 | 3.62 | -5.46 | 143 | – | 0.29 | 0.7 | -10.7 | -1.59 | 64.1 | -1.12 | -7.95 | 10.3
NS(=O)(=O)c1ccc(NCC(=O)Nc2ccc(-c3nc4ccccc4s3)cc2)cc1 | 84 | 25.3 | 1.47 | 74.9 | 1.17 | 8.62 | 87 | 12.2 | 2.83 | 65.7 | 32.8 | 87.9 | 72.4 | 1.67 | – | –
O=C(CNc1nnc(-c2ccc(Cl)cc2)o1)Nc1ccc(-c2nc3ccccc3s2)cc1 | 28.2 | 11.3 | -4.34 | 22.6 | -1.52 | 2.97 | 143 | – | -2.8 | 2.27 | -3.22 | -1.02 | 65.5 | 3.06 | -4.4 | 18
Cc1ccc(NCC(=O)Nc2ccc(-c3nc4ccccc4s3)cc2)cc1 | 19.1 | 16.4 | -3.48 | 12.6 | -3.28 | 2.9 | 22.8 | -6.66 | 5.3 | 0.68 | 14.5 | 10.2 | 40.9 | -3.42 | – | –
